Tests used:
Ctenocephalides felis [1] = assay: Topical (spray or 2% dust) flea control on dogs, Table I; type: in vivo
Method: Dogs used in testing were placed in raised cages with steel grate floors. Three days prior to treatment, 100 fleas were placed on each dog. On the day of treatment each cage was lined with absorbent brown paper. Dogs were treated at various dose levels (1-60 mg./kg.) applied topically using a 2% active ingredient dust formulation, or a dilute aqueous dispersion applied as a spray. Activity was determined by the number of dead fleas recovered from the brown paper, and a systematic examination of the test animal in relation to infested, untreated control dogs.
Residual activity of the initial application of the test compound was done by experimentally reinfesting each dog at 7-day intervals with an additional 100 adult C. felis. Activity was determined as described above.

Ctenocephalides felis [2] = assay: Flea control on dogs fed medicated diet, Table IV; type: in vivo; set-up: key: 100% Control; PC: Partial Control; NC: No Control
Method: (§1) Five groups of two mongrel dogs each were fed a daily dose of 0, 6.25, 25, 100 or 400 mg. O,O,O',O'-tetramethyl O,O'-thiodi-p-phenylene phosphorothioate/kg. body weight in Agway Big Red Dog Meal. Dogs eating less than 75% of the food were given a corrected dose by gelatin capsule to equal 100%. Medication began 1 day after infesting each dog with 100 adult Ctenocephalides felis and 2 days before infesting each dog with 10 Dermacentor variabiles and 10 Rhipicephalus sanguineus adults.

[3] = tested on: Boophilus microplus larvae; assay: Control of acarina larvae in pipettes (simulated spray); type: in vivo; conditions: Rhipicephalus microplus, 48 hours, read-out: Activity (larval mortality)
Method: Boophilus is a one-host tick which uses only one host animal during its three parasitic life stages (larvae, nymph, adult). […] Twenty larvae are enclosed in a pipette sealed at one end with a gauze material, and the "solution" containing the test compound is then drawn through the pipette with a vacuum hose, simulating a spray system. The open end of the pipette is sealed with plastiline and the ticks held for 48 hours at room temperature and 80+% humidity. Activity is based on mortality. The test compound was 100%, 100% and 0% active at 0.01%, 0.001% and 0.0001% (w/w), respectively.

Rhipicephalus sanguineus = assay: Tick control on dogs fed medicated diet, Table V; type: in vivo; conditions: for % Control of Adult Engorged Female Ticks R.S.: dogs
Method: as §1

Dermacentor variabilis = assay: Tick control on dogs fed medicated diet, Table V; type: in vivo; conditions: for % Control of Adult Engorged Female Ticks D.V.: dogs
Method: as §1

[4] = Toxicity (general statement); type: in vivo, dogs and cats; conditions: at concentrations many times that of the actual amounts employed
[5] = 400 mg/kg in feed, end of experiment (8 days)

SMILES: COP(=S)(OC)Oc1ccc(Sc2ccc(OP(=S)(OC)OC)cc2)cc1 [O,O,O',O'-tetramethyl O,O'-thiodi-p-phenylene phosphorothioate]
- Percent Activity (Ctenocephalides felis [1]; 2% dust 10.0 mg/kg, day 0): 100%
- Percent Activity (Ctenocephalides felis [1]; 2% dust 10.0 mg/kg, day 7): 100%
- Percent Activity (Ctenocephalides felis [1]; 2% dust 10.0 mg/kg, day 14): 100%
- Percent Activity (Ctenocephalides felis [1]; 2% dust 10.0 mg/kg, day 21): 100%
- Percent Activity (Ctenocephalides felis [1]; 2% dust 10.0 mg/kg, day 28): 80%
- Percent Activity (Ctenocephalides felis [1]; 2% dust 10.0 mg/kg, day 42): 0%
- Percent Activity (Ctenocephalides felis [1]; 2% dust 20.0 mg/kg, day 0): 100%
- Percent Activity (Ctenocephalides felis [1]; 2% dust 20.0 mg/kg, day 7): 100%
- Percent Activity (Ctenocephalides felis [1]; 2% dust 20.0 mg/kg, day 14): 100%
- Percent Activity (Ctenocephalides felis [1]; 2% dust 20.0 mg/kg, day 21): 100%
- Percent Activity (Ctenocephalides felis [1]; 2% dust 20.0 mg/kg, day 28): 100%
- Percent Activity (Ctenocephalides felis [1]; 2% dust 20.0 mg/kg, day 42): 0%
- Percent Activity (Ctenocephalides felis [1]; 2% dust 40.0 mg/kg, day 0): 100%
- Percent Activity (Ctenocephalides felis [1]; 2% dust 40.0 mg/kg, day 7): 100%
- Percent Activity (Ctenocephalides felis [1]; 2% dust 40.0 mg/kg, day 14): 100%
- Percent Activity (Ctenocephalides felis [1]; 2% dust 40.0 mg/kg, day 21): 100%
- Percent Activity (Ctenocephalides felis [1]; 2% dust 40.0 mg/kg, day 28): 100%
- Percent Activity (Ctenocephalides felis [1]; 2% dust 40.0 mg/kg, day 42): 0%
- Percent Activity (Ctenocephalides felis [1]; spray 1.25 mg/kg, day 0): 100%
- Percent Activity (Ctenocephalides felis [1]; spray 1.25 mg/kg, day 7): 100%
- Percent Activity (Ctenocephalides felis [1]; spray 1.25 mg/kg, day 14): 100%
- Percent Activity (Ctenocephalides felis [1]; spray 1.25 mg/kg, day 21): 100%
- Percent Activity (Ctenocephalides felis [1]; spray 1.25 mg/kg, day 25): 0%
- Percent Activity (Ctenocephalides felis [1]; spray 2.5 mg/kg, day 0): 100%
- Percent Activity (Ctenocephalides felis [1]; spray 2.5 mg/kg, day 7): 100%
- Percent Activity (Ctenocephalides felis [1]; spray 2.5 mg/kg, day 14): 100%
- Percent Activity (Ctenocephalides felis [1]; spray 2.5 mg/kg, day 21): 0%
- Percent Activity (Ctenocephalides felis [1]; spray 10.0 mg/kg, day 0): 100%
- Percent Activity (Ctenocephalides felis [1]; spray 10.0 mg/kg, day 7): 100%
- Percent Activity (Ctenocephalides felis [1]; spray 10.0 mg/kg, day 14): 100%
- Percent Activity (Ctenocephalides felis [1]; spray 10.0 mg/kg, day 21): 100%
- Percent Activity (Ctenocephalides felis [1]; spray 10.0 mg/kg, day 28): 10%
- Flea Control (Ctenocephalides felis [2]; 6.25 mg/kg in feed, 1 dog, after 3 days): complete flea control
- Flea Control (Ctenocephalides felis [2]; 6.25 mg/kg in feed, other dog, after 4 days): complete flea control
- Flea Control (Ctenocephalides felis [2]; 400, 100 or 25 mg/kg in feed, all dogs, after 48 hours): Complete flea control
- Flea Control (Ctenocephalides felis [2]; in feed 6.25 mg/kg daily, day 2): NC and PC
- Flea Control (Ctenocephalides felis [2]; in feed 6.25 mg/kg daily, day 4): 100 (100% Control)
- Flea Control (Ctenocephalides felis [2]; in feed 25 mg/kg daily, day 2): 100 (100% Control)
- Flea Control (Ctenocephalides felis [2]; in feed 100 mg/kg daily, day 2): 100 (100% Control)
- Flea Control (Ctenocephalides felis [2]; in feed 400 mg/kg daily, day 2): 100 (100% Control)
- mortality at 0.0001 % ([3]; 0.0001% (w/w)): 0%
- mortality at 0.001 % ([3]; 0.001% (w/w)): 100%
- mortality at 0.01 % ([3]; 0.01% (w/w)): 100%
- effect against adult ticks (Rhipicephalus sanguineus; 6.25 mg/kg in feed): ineffective
- effect against adult ticks (Rhipicephalus sanguineus; 25 mg/kg in feed): ineffective
- condition of ticks (Rhipicephalus sanguineus; 100 mg/kg in feed): engorged and detached normally
- condition of two female ticks on the ear of one dog (Rhipicephalus sanguineus; 400 mg/kg in feed, end of experiment): appeared normal, though not completely engorged
- condition of adult ticks in capsules (Rhipicephalus sanguineus; [5]): either dead or moribund
- % Control of Adult Engorged Female Ticks R.S. (Rhipicephalus sanguineus; 6.25 mg/kg in feed): 20%
- % Control of Adult Engorged Female Ticks R.S. (Rhipicephalus sanguineus; 25 mg/kg in feed): 0%
- % Control of Adult Engorged Female Ticks R.S. (Rhipicephalus sanguineus; 100 mg/kg in feed): 50%
- % Control of Adult Engorged Female Ticks R.S. (Rhipicephalus sanguineus; 400 mg/kg in feed): 100%
- effect against adult ticks (Dermacentor variabilis; 6.25 mg/kg in feed): ineffective
- effect against adult ticks (Dermacentor variabilis; 25 mg/kg in feed): ineffective
- condition of ticks (Dermacentor variabilis; 100 mg/kg in feed, some ticks on one dog): discolored and stunted
- condition of adult ticks in capsules (Dermacentor variabilis; [5]): either dead or moribund
- % Control of Adult Engorged Female Ticks D.V. (Dermacentor variabilis; 6.25 mg/kg in feed): 0%
- % Control of Adult Engorged Female Ticks D.V. (Dermacentor variabilis; 25 mg/kg in feed): 10%
- % Control of Adult Engorged Female Ticks D.V. (Dermacentor variabilis; 100 mg/kg in feed): 30%
- % Control of Adult Engorged Female Ticks D.V. (Dermacentor variabilis; 400 mg/kg in feed): 100%
- toxicity [4]: substantially non-toxic
